Here are results for five compounds from patent US10428055B2, “Substituted piperidines having GPR119 agonistic activity” (DONG-A ST CO., LTD., priority 2014, dated 2019).

A value given as a limit tells only on which side of the number the result lay.

Experiment [1] concerns the target T1, Human GPR119 (Homo sapiens, UniProt Q8TDV5).
T1 construct: host or cells: HEK293 (ATCC)
T1 sequence (Q8TDV5 1-335): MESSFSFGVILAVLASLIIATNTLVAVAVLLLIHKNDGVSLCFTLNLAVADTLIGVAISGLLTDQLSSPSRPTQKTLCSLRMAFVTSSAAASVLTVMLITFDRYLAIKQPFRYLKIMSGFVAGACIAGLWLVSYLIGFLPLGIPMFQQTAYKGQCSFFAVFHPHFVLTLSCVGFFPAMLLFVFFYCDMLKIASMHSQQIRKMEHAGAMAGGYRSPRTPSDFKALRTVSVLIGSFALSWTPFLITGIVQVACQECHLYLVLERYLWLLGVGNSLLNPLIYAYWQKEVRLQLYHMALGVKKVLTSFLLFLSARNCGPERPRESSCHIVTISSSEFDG
The experiment can be described thus: Human GPR119 activation assay (cAMP, HTRF). Particulars: HEK293 cells transiently expressing human GPR119, relative to maximum effect of OEA; for Emax at 0.001 µM / Emax at 0.01 µM: 1 h, read-out: hGPR119 activation ability (cAMP assay) Relative Response % vs OEA. Format: cell-based. The gist of the method:
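HEK293 cells transiently overexpressing human GPR119 (48 h), pre-treated 10 min then exposed 60 min to compound in KRBH with 11.1 mM glucose, 0.1% BSA and 0.5 mM IBMX. Intracellular cAMP quantified by HTRF; activation expressed as % of maximal oleoylethanolamide effect from multiple-concentration testing.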

The subject of experiment [2] is C57BL/6 mouse. The experiment can be described thus: Assessment of glucose tolerance improvement effect in mouse. The format is in vivo. As to conditions: 2 h; 10 mg/kg oral, 30 min before oral glucose 2 g/kg; male C57BL/6 mouse; blood glucose AUC. The method, then:
<Experimental Example 2>Assessment of glucose tolerance improvement effect in mouse
As one of anti-diabetic effect indicators, the glucose tolerance improvement effect of the above compounds was evaluated in 7-week male laboratory mouse (C57BL/6 mouse), as the effect of improving postprandial glycemic control ability.
The laboratory mouse was fasted from the day before the experiment for 16-17 hours. The compound of the present invention was orally administered 30 minutes before administrating glucose, and after 30 minutes, a glucose solution (2 g/kg/10 ml) was orally administered. A drug was prepared by suspending in a 10% Gelucire solution. At the times immediately before drug administration, immediately before glucose solution administration, 15 minutes, 30 minutes, 60 minutes, 90 minutes, and 120 minutes after glucose administration, the whole blood glucose levels was measured from tail vein using a blood glucose meter (AccuChek Active, Roche Diagnostics), and the area under the curve of a temporal blood glucose curve was calculated. From the calculated area under the blood glucose curve, the area under the blood glucose curve of a negative control group to which no glucose solution was administered was subtracted, and inhibitory activity against blood glucose increase of a control group to which only the 10% Gelucire solution and glucose solution were administered was calculated as a percentage, thereby evaluating the glucose tolerance improvement efficacy of a drug.
The results are shown in Table 3, in which the glucose tolerance improvement effect represented at a dose of 10 mg/kg was represented by classifying into three groups, under 30%, more than 30% under 40%, and more than 40%. A significant glucose tolerance improvement effect was identified in 22 compounds on which the experiment was carried out, and among those compounds, 16 compounds represented an excellent in vivo activity of 30% inhibitory dose of 10 mg/kg or less. In the following Table 3, A represents an inhibitory activity more than 40%, B represents an inhibitory activity more than 30% under 40% and C represents an inhibitory activity under 30%.

Take `Cc1nnc(-c2c(F)cc(OCCCC3CCN(c4ncc(C(F)(F)F)cn4)CC3)cc2F)o1` [Example 46, 2-(2,6-difluoro-4-(3-(1-(5-(trifluoromethyl)pyrimidin-2-yl)piperidin-4-yl)propoxy)phenyl)-5-methyl-1,3,4-oxadiazole]: in experiment [1] (1 nM), the Emax at 0.001 µM came to 209%. For the same compound, the Emax at 0.01 µM in experiment [1] (10 nM) was determined as 239%. For the same compound, in experiment [2], the inhibition in vivo at 10 mg/kg was greater than 40%.

As to `CCc1cnc(N2CCC(CCCOc3cc(F)c(-c4nnc(CC)o4)c(F)c3)CC2)nc1` [Example 43, 2-ethyl-5-(4-(3-(1-(5-ethylpyrimidin-2-yl)piperidin-4-yl)propoxy)-2,6-difluorophenyl)-1,3,4-oxadiazole], in experiment [1] (1 nM), the Emax at 0.001 µM worked out at 260%. The Emax at 0.01 µM in experiment [1] (10 nM) is 538%. This compound also gave an inhibition in vivo at 10 mg/kg in experiment [2] greater than 40%.

Regarding `CC(C)c1noc(N2CCC(CCCOc3cc(F)c(-c4nnc(C(C)C)o4)c(F)c3)CC2)n1` [Example 57, 5-(4-(3-(3,5-difluoro-4-(5-isopropyl-1,3,4-oxadiazol-2-yl)phenoxy)propyl)piperidin-1-yl)-3-isopropyl-1,2,4-oxadiazole], the Emax at 0.001 µM in experiment [1] (1 nM) amounted to 255%. In addition, the Emax at 0.01 µM in experiment [1] (10 nM) was 395%. In experiment [2], this compound displayed an inhibition in vivo at 10 mg/kg of 30 to 40%.

On to `CCc1cnc(N2CCC(CCCOc3cc(F)c(-c4noc(C(C)C)n4)c(F)c3)CC2)nc1` [Example 15, 3-(4-(3-(1-(5-ethylpyrimidin-2-yl)piperidin-4-yl)propoxy)-2,6-difluorophenyl)-5-isopropyl-1,2,4-oxadiazole], for which the figures for the “hGPR119 activation ability (cAMP assay) Relative Response % vs OEA” value in experiment [1] (1 nM) and in experiment [1] (10 nM) were 87.7% and 183.8%, respectively. This compound also registered an inhibition in vivo at 10 mg/kg in experiment [2] greater than 40%.

In the case of `CCCCCc1cnc(N2CCC(CCCOc3cc(F)c(-c4noc(C(C)C)n4)c(F)c3)CC2)nc1` [Example 24, 3-(2,6-difluoro-4-(3-(1-(5-pentylpyrimidin-2-yl)piperidin-4-yl)propoxy)phenyl)-5-isopropyl-1,2,4-oxadiazole], the Emax at 0.001 µM in experiment [1] (1 nM) came out at 132%. For the same compound, the Emax at 0.01 µM in experiment [1] (10 nM) came to 309%. In experiment [2], this compound showed an inhibition in vivo at 10 mg/kg of less than 30%.

One may read the inhibition in vivo as the drop in the measured response relative to a control, in per cent. A lower inhibition in vivo goes with a weak effect.
